This is an account of results in patent US20260191968A1, “PROTAC DEGRADERS OF MLLT1 AND/OR MLLT3” (DARK BLUE THERAPEUTICS LTD, priority 2024, published 2026).

The target of test [1] is T1, MLLT1 (Homo sapiens, UniProt Q03111).
T1 construct: host or cells: MV4-11
T1 sequence (Q03111 1-559): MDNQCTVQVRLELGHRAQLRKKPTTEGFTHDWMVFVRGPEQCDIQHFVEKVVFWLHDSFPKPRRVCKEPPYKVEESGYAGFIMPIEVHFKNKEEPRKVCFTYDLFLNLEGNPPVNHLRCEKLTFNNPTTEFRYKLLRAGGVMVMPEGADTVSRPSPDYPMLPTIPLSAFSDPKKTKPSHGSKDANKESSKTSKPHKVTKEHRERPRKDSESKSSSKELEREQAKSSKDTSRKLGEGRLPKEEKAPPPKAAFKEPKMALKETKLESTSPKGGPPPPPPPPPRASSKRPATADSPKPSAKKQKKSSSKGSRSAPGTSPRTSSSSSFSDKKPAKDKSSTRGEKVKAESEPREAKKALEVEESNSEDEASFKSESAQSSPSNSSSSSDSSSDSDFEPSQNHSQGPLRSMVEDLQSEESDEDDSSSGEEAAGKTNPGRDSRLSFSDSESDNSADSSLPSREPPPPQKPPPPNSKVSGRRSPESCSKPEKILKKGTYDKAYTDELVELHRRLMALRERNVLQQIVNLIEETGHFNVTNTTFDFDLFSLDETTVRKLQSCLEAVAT
The test is described as follows: MLLT1 degradation assay in MV4-11 cells (JESS chemiluminescent detection), three concentrations, 24 h. Format: cell-based. To be noted: with respect to DMSO control. The essentials:
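Read-out is % MLLT1 degradation versus DMSO, from band peak areas on a JESS chemiluminescent system. Cells (MV4-11) were exposed for 24 h at 37° C to three compound levels, 10, 100 and 1000 nM, in 0.1% DMSO.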

The test system of test [2] is MV4-11 cells. The test is described as follows: MV4-11 cellular proliferative assay, Assay Format B (CTG 2.0, 168 h). Format: cell-based. As to conditions: Homo sapiens, 168 h (7 days), CTG 2.0, read-out: IC50 (MV4-11 cellular proliferative assay, Assay format B). The method, then: MV4-11 cells at a confluency of ~50-80% was used for cell growth assay. 600 cells/well in a 384-well opaque cell culture plate (6007680; Perkin Elmer) were seeded in 40 μL of complete medium (IMDM+10% FBS+1X Penicillin-Streptomycin). Cells were incubated overnight at 37° C., 5% CO2. 10 mM DMSO stocks were prepared, cells were treated with 10 concentrations of test compounds starting from 1 uM or 100 nM, 3-fold dilution in 10 uL (5×concentration) of complete medium. Final DMSO concentration was 0.3%. Culture plates were centrifuged at 40×g, 30s. Cells were incubated with compounds for 168 h (7 days). After 7 days, 20 uL CTG 2.0 reagent (G9242; Promega) was added per well and luminescence reading was taken in Envision Xcite 2105 multimode plate reader. Data was analyzed in GraphPad Prism 10.0 and data was shown as % viability with respect to DMSO control and dose-response curves were generated using four parameter logistic regression. Assay quality was determined by z-factor calculation using positive and negative controls.

`CN1CCC[C@@H]1c1cc2cnc(NC(=O)c3ccc(-c4cnn(CCCC5CCN(c6cccc7c6C(=O)N(C6CCC(=O)NC6=O)C7=O)CC5)c4)cn3)cc2[nH]1` (stereo partly drawn) [Example 211, 5-(1-(3-(1-(2-(2,6-dioxopiperidin-3-yl)-1,3-dioxoisoindolin-4-yl)piperidin-4-yl)propyl)-1H-pyrazol-4-yl)-N-(2-((R)-1-methylpyrrolidin-2-yl)-1H-pyrrolo[3,2-c]pyridin-6-yl)picolinamide]: in test [1], the “MLLT1% Degradation @ 0.01 μM” value was “A (Category A: A ≥ 75% degradation)”, the “MLLT1% Degradation @ 0.1 μM” value was “A (Category A: A ≥ 75% degradation)” and the “MLLT1% Degradation @ 1 μM” value is “A (Category A: A ≥ 75% degradation)”. For the same compound, the half-inhibitory concentration (IC50) in test [2] was at most 100 nM.

On to `CN1CCC[C@@H]1c1cc2cnc(NC(=O)c3ccc(CCCc4ccc(-c5cccc6c5CN(C5CCC(=O)NC5=O)C6=O)cc4)cc3)cc2[nH]1` (stereo partly drawn) [Example 199, 4-(3-(4-(2-(2,6-dioxopiperidin-3-yl)-1-oxoisoindolin-4-yl)phenyl)propyl)-N-(2-((R)-1-methylpyrrolidin-2-yl)-1H-pyrrolo[3,2-c]pyridin-6-yl)benzamide], for which, in test [1], the “MLLT1% Degradation @ 0.01 μM” value was “A (Category A: A ≥ 75% degradation)”, the “MLLT1% Degradation @ 0.1 μM” value is reported as “A (Category A: A ≥ 75% degradation)” and the “MLLT1% Degradation @ 1 μM” value is reported as “A (Category A: A ≥ 75% degradation)”. The IC50 in test [2] was at most 100 nM.

Take `CN1CCC[C@@H]1c1cc2cnc(NC(=O)c3ccc(CCCCC#Cc4cccc5c4CN([C@@H]4CCC(=O)NC4=O)C5=O)cc3)cc2[nH]1` (relative stereo) [Example 105, 4-(6-(2-((rel-R)-2,6-dioxopiperidin-3-yl)-1-oxoisoindolin-4-yl)hex-5-yn-1-yl)-N-(2-((R)-1-methylpyrrolidin-2-yl)-1H-pyrrolo[3,2-c]pyridin-6-yl)benzamide]: the half-maximal inhibitory concentration (IC50) in test [2] was at most 100 nM.

Take `CN1CCC[C@@H]1c1cc2cnc(NC(=O)c3ccc(CCCCC#Cc4cccc5c4CN([C@H]4CCC(=O)NC4=O)C5=O)cc3)cc2[nH]1` (relative stereo) [Example 104, 4-(6-(2-((rel-S)-2,6-dioxopiperidin-3-yl)-1-oxoisoindolin-4-yl)hex-5-yn-1-yl)-N-(2-((R)-1-methylpyrrolidin-2-yl)-1H-pyrrolo[3,2-c]pyridin-6-yl)benzamide]: the IC50 in test [2] is at most 100 nM.

In the case of `CN1CCC[C@@H]1c1cc2cnc(NC(=O)c3ccc(CCCC4CCN(c5cccc6c5CN(C5CCC(=O)NC5=O)C6=O)CC4)cc3)cc2[nH]1` (stereo in doubt) [Example 78, 4-(3-(1-(2-((rel-R)-2,6-dioxopiperidin-3-yl)-1-oxoisoindolin-4-yl)piperidin-4-yl)propyl)-N-(2-((R)-1-methylpyrrolidin-2-yl)-1H-pyrrolo[3,2-c]pyridin-6-yl)benzamide], in test [1], the “MLLT1% Degradation @ 0.01 μM” value is “B (Category B: 50% ≤ B < 75% degradation)”, the “MLLT1% Degradation @ 0.1 μM” value is “A (Category A: A ≥ 75% degradation)” and the “MLLT1% Degradation @ 1 μM” value is “A (Category A: A ≥ 75% degradation)”.

With `CN1CCC[C@@H]1c1cc2cnc(NC(=O)c3ccc(OC4CC5(CCN(c6cccc7c6CN(C6CCC(=O)NC6=O)C7=O)CC5)C4)cc3F)cc2[nH]1` (stereo partly drawn) [Example 200, 4-((7-(2-(2,6-dioxopiperidin-3-yl)-1-oxoisoindolin-4-yl)-7-azaspiro[3.5]nonan-2-yl)oxy)-2-fluoro-N-(2-((R)-1-methylpyrrolidin-2-yl)-1H-pyrrolo[3,2-c]pyridin-6-yl)benzamide], in test [1], the “MLLT1% Degradation @ 0.01 μM” value is recorded as “B (Category B: 50% ≤ B < 75% degradation)”, the “MLLT1% Degradation @ 0.1 μM” value was “A (Category A: A ≥ 75% degradation)” and the “MLLT1% Degradation @ 1 μM” value is given as “A (Category A: A ≥ 75% degradation)”.

For `CN1CCC[C@@H]1c1cc2cnc(NC(=O)c3ccc(OCCC4CCN(c5cccc6c5C(=O)N(C5CCC(=O)NC5=O)C6=O)CC4)nc3)cc2[nH]1` (stereo partly drawn) [Example 179, 6-(2-(1-(2-(2,6-dioxopiperidin-3-yl)-1,3-dioxoisoindolin-4-yl)piperidin-4-yl)ethoxy)-N-(2-((R)-1-methylpyrrolidin-2-yl)-1H-pyrrolo[3,2-c]pyridin-6-yl)nicotinamide], in test [1], the “MLLT1% Degradation @ 0.01 μM” value is given as “B (Category B: 50% ≤ B < 75% degradation)”, the “MLLT1% Degradation @ 0.1 μM” value is given as “B (Category B: 50% ≤ B < 75% degradation)” and the “MLLT1% Degradation @ 1 μM” value was “B (Category B: 50% ≤ B < 75% degradation)”.

`CN1CCC[C@@H]1c1cc2cnc(NC(=O)c3ccc(N4CCC(c5ccc(-c6cccc7c6CN(C6CCC(=O)NC6=O)C7=O)cc5)CC4)cc3F)cc2[nH]1` (stereo partly drawn) [Example 218, 4-(4-(4-(2-(2,6-dioxopiperidin-3-yl)-1-oxoisoindolin-4-yl)phenyl)piperidin-1-yl)-2-fluoro-N-(2-((R)-1-methylpyrrolidin-2-yl)-1H-pyrrolo[3,2-c]pyridin-6-yl)benzamide]: in test [1], the “MLLT1% Degradation @ 0.01 μM” value is on record as “C (Category C: 25% ≤ C < 50% degradation)”, the “MLLT1% Degradation @ 0.1 μM” value is “A (Category A: A ≥ 75% degradation)” and the “MLLT1% Degradation @ 1 μM” value is “B (Category B: 50% ≤ B < 75% degradation)”.

Turning to `CN1CCC[C@@H]1c1cc2cnc(NC(=O)c3ccc(CCCC4CCN(c5cccc6c5C(=O)N(C5CCC(=O)NC5=O)C6=O)CC4)cc3)cc2[nH]1` (stereo partly drawn) [Example 128, 4-(3-(1-(2-(2,6-dioxopiperidin-3-yl)-1,3-dioxoisoindolin-4-yl)piperidin-4-yl)propyl)-N-(2-((R)-1-methylpyrrolidin-2-yl)-1H-pyrrolo[3,2-c]pyridin-6-yl)benzamide], in test [1], the “MLLT1% Degradation @ 0.01 μM” value was “C (Category C: 25% ≤ C < 50% degradation)”, the “MLLT1% Degradation @ 0.1 μM” value is “A (Category A: A ≥ 75% degradation)” and the “MLLT1% Degradation @ 1 μM” value was “A (Category A: A ≥ 75% degradation)”.

On to `CN1CCC[C@@H]1c1cc2cnc(NC(=O)c3ccc(N4CCN(CC5CCN(c6ccc7c(c6)C(=O)N(C6CCC(=O)NC6=O)C7=O)CC5)CC4)cc3)cc2[nH]1` (stereo partly drawn) [Example 221, 4-(4-((1-(2-(2,6-dioxopiperidin-3-yl)-1,3-dioxoisoindolin-5-yl)piperidin-4-yl)methyl)piperazin-1-yl)-N-(2-((R)-1-methylpyrrolidin-2-yl)-1H-pyrrolo[3,2-c]pyridin-6-yl)benzamide], for which, in test [1], the “MLLT1% Degradation @ 0.01 μM” value was “C (Category C: 25% ≤ C < 50% degradation)”, the “MLLT1% Degradation @ 0.1 μM” value is on record as “B (Category B: 50% ≤ B < 75% degradation)” and the “MLLT1% Degradation @ 1 μM” value is “B (Category B: 50% ≤ B < 75% degradation)”.

Regarding `CN1CCC[C@@H]1c1cc2cnc(NC(=O)c3ccc(N4CCC(CCCCC#Cc5cccc6c5CN(C5CCC(=O)NC5=O)C6=O)CC4)nc3)cc2[nH]1` (stereo partly drawn) [Example 188, 6-(4-(6-(2-(2,6-dioxopiperidin-3-yl)-1-oxoisoindolin-4-yl)hex-5-yn-1-yl)piperidin-1-yl)-N-(2-((R)-1-methylpyrrolidin-2-yl)-1H-pyrrolo[3,2-c]pyridin-6-yl)nicotinamide], in test [1], the “MLLT1% Degradation @ 0.01 μM” value is listed as “C (Category C: 25% ≤ C < 50% degradation)”, the “MLLT1% Degradation @ 0.1 μM” value is “B (Category B: 50% ≤ B < 75% degradation)” and the “MLLT1% Degradation @ 1 μM” value is given as “B (Category B: 50% ≤ B < 75% degradation)”.

Take `CN1CCC[C@@H]1c1cc2cnc(NC(=O)c3ccc(CCC#Cc4cccc5c4CN(C4CCC(=O)NC4=O)C5=O)cn3)cc2[nH]1` (stereo partly drawn) [Example 49, 5-(4-(2-(2,6-dioxopiperidin-3-yl)-1-oxoisoindolin-4-yl)but-3-yn-1-yl)-N-(2-((R)-1-methylpyrrolidin-2-yl)-1H-pyrrolo[3,2-c]pyridin-6-yl)picolinamide]: in test [1], the “MLLT1% Degradation @ 0.01 μM” value is recorded as “D (Category D: D < 25% degradation)”, the “MLLT1% Degradation @ 0.1 μM” value is listed as “D (Category D: D < 25% degradation)” and the “MLLT1% Degradation @ 1 μM” value was “C (Category C: 25% ≤ C < 50% degradation)”.

On to `CN1CCC[C@@H]1c1cc2cnc(NC(=O)c3ccc(CCCCC#Cc4ccc5c(c4)CN(C4CCC(=O)NC4=O)C5=O)cc3F)cc2[nH]1` (stereo partly drawn) [Example 223, 4-(6-(2-(2,6-dioxopiperidin-3-yl)-1-oxoisoindolin-5-yl)hex-5-yn-1-yl)-2-fluoro-N-(2-((R)-1-methylpyrrolidin-2-yl)-1H-pyrrolo[3,2-c]pyridin-6-yl)benzamide], for which, in test [1], the “MLLT1% Degradation @ 0.01 μM” value is given as “D (Category D: D < 25% degradation)”, the “MLLT1% Degradation @ 0.1 μM” value is “C (Category C: 25% ≤ C < 50% degradation)” and the “MLLT1% Degradation @ 1 μM” value is reported as “D (Category D: D < 25% degradation)”.
